17 compounds from EP4741391A1, “NMT INHIBITOR, AND PREPARATION METHOD THEREFOR AND USE THEREOF” (Nanjing Synnocare Pharmaceutical Technology Co., Ltd., priority 2023, dated 2025) can be followed below.

One test addresses T1, NMT1 enzyme (Homo sapiens, UniProt P30419).
T1 sequence (P30419 1-496): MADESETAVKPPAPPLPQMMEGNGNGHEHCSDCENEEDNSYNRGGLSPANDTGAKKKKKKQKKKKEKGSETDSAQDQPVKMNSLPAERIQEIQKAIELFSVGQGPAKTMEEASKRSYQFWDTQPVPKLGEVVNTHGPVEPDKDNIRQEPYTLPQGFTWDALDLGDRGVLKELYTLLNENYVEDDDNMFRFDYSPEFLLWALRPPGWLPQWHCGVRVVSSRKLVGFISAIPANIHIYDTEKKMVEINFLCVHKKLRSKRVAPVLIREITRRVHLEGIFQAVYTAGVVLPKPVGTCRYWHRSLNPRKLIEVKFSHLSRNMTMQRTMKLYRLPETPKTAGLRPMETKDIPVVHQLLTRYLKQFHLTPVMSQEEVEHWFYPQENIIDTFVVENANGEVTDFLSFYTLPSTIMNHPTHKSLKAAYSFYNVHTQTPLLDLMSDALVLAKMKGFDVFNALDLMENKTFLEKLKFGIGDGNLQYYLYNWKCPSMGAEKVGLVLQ
Briefly: Inhibitory activity on NMT1 enzyme catalysis (fluorescence intensity, CPM probe). It is filed as biochemical. The note with it: 6 nM NMT1 enzyme, 1.25 µM myristoyl-CoA, 20 µM HSPP60 SRC peptide, 45 minutes at 25 °C. The method, then: This study evaluated the ability of the compounds of the invention to inhibit NMT1 catalytic activity in vitro. The experiment used a FI (Fluorescence Intensity) analysis method, characterizing NMT1 inhibitors under conditions of 1.25 µM myristoyl-CoA (Lithium salt, Sigma, M4414). In this experiment, a synthesized peptide with the sequence H-Gly-Ser-Asn-Lys-Ser-Lys-Pro-Lys-NH2, HSPP60SRC (Nanjing Peptide Industry, NJP23953), was used as the reaction substrate. The final concentration of the NMT1 enzyme was 6 nM, the final concentration of CPM (Reactive thiol fluorescence probe, Invitrogen, D346) was 1 µM, the final concentration of HSPP60 SRC was 20 µM, and the final concentration of DMSO was 0.5%.
Compounds were dissolved in DMSO to obtain 10 mM stock solutions. Dose-response solutions were prepared with a top endpoint compound concentration of 3 mM, followed by three-fold serial dilutions in DMSO, totaling ten data points. Using an ECHO acoustic liquid handler (BECKMAN, ECHO 655 system), 0.05 µL of the diluted compound solutions was transferred to a 384-well assay plate (Corning, CLS4514). Then, 2.5 µL of the NMT1 enzyme working solution was added to the 384-well assay plate, followed by incubation at 25 °C for 10 minutes. Subsequently, 5 µL of the CPM and myristoyl-CoA working solution was added, the plate was centrifuged at 1000 rpm for 1 minute, and then 2.5 µL of the HSPP60 SRC working solution was added to initiate the reaction. The reaction was incubated at 25 °C for 45 minutes. The FI signal ([…]; ex: 405 nm) was detected using an HTS high-throughput screening multifunctional microplate reader (BMG, PHERA star FSX).
The inhibition rate of the compounds on NMT1 enzyme catalytic activity was calculated using the following formula: Inhibition Percentage (%) = 100 * (Mean of DMSO group - Mean of Compound group) / (Mean of DMSO group - Mean of Blank control group). The IC50 curve of the compounds was fitted using the software XLfit 5.5.0 according to the nonlinear regression equation. Table 1 provides the inhibitory activity of the compounds of the invention on NMT1 enzyme catalysis.

In another test the test system is MV-4-11 cells. Briefly: Anti-proliferative activity against MV-4-11 cells (three-day cell viability chemiluminescence). The note with it: Homo sapiens, MV4-11, 72 h, MV-4-11 human monocytic leukemia cells, three days of exposure. The format is cell-based. As to the method: This study utilized a cell proliferation assay to analyze the cytotoxicity of MV-4-11 human monocytic leukemia cells after three days of exposure to NMT1 inhibitors. The MV-4-11 cell line was purchased from Nanjing Cobuilder Biotechnology Co., Ltd., and cultured in IMDM medium (Viva cell) in an incubator (Thermo) at 37 °C with 5% CO2. In this experiment, NMT1 inhibitors were dissolved in DMSO to obtain 600 µM stock solutions. Dose-response solutions were prepared with a top endpoint compound concentration of 3 µM, followed by three-fold serial dilutions in DMSO, totaling eight data points. The final concentration of DMSO was 0.5%.
MV-4-11 cells were seeded into a white 96-well plate, 80 µL of cell suspension per well, containing 6000 MV-4-11 cells. The cell plate was placed in the CO2 incubator for overnight culture. Then, 20 µL of NMT1 inhibitor solutions at different concentrations were added to the wells. The 96-well plate was placed back into the incubator for three days. Another cell plate was prepared, and the signal was read on the day of drug addition to serve as the maximum value (Max value in the equation below) for data analysis. To this cell plate, 25 µL of cell viability chemiluminescence detection reagent was added per well, followed by incubation at room temperature for 10 minutes to stabilize the luminescence signal. A multi-label analyzer was used for reading.
The raw data were converted into inhibition rates using the equation (Sample - Min) / (Max - Min) * 100%. The IC50 values were then determined by fitting a four-parameter curve (using the "log(inhibitor) vs. response - Variable slope" model in GraphPad Prism). Min: wells treated with 0.5% DMSO; Max: Day 0 wells. Table 1 provides the inhibitory activity of the compounds of the invention on MV-4-11 cell proliferation. Table 1: Compound Inhibitory Activity against NMT1 Enzyme (IC50) and Anti-proliferative Activity against MV-4-11 Cells (IC50)

SMILES strings stand for the structures.

For orientation: IC50 means the concentration that inhibits the measured activity by half. Lower therefore signals greater potency. As for `Cc1c(CCOc2cc(Cl)ccc2-c2ccn3ncc(CN(C)C)c3c2)c(C(=O)N(C)C)nn1C` [Compound 1, 4-{2-[(5-chloro-2-{3-[(dimethylamino)methyl]-pyrazolo [1,5-a]pyridin-5-yl}phenyl)oxy]ethyl}-1,5,N,N-tetramethylpyrazole-3-carboxamide], the IC50 against NMT1 enzyme came to 1.77 nM; with MV-4-11 cells it was 17.1 nM. On the same counts, the results for `CNCc1cnn2ccc(-c3ccc(Cl)cc3OCCc3c(C(=O)N(C)C)nn(C)c3C)cc12` [Compound 2, 4-{2-[(5-chloro-2-{3-[(methylamino)methyl]pyrazolo[1,5-a]pyridin-5-yl}phenyl)oxy]ethyl}-1,5,N,N-tetramethyl pyrazole-3-carboxamide] are 2.13 nM and 23.4 nM.

Take `Cc1c(CCOc2cc(Cl)ccc2-c2ccn3ncc(CN)c3c2)c(C(=O)N(C)C)nn1C` [Compound 3, 4-[2-({2-[3-(aminomethyl)pyrazolo[1,5-a]pyridin-5-yl]-5-chlorophenyl}oxy)ethyl]-1,5,N,N-tetramethylpyrazole-3-carboxamide]: the IC50 worked out at 3.45 nM against NMT1 enzyme and 41.2 nM with MV-4-11 cells.

As for `Cc1c(CCOc2cc(F)ccc2-c2ccn3ncc(CN(C)C)c3c2)c(C(=O)N(C)C)nn1C` [Compound 4, 4-{2-[(2-{3-[(dimethylamino)methyl]pyrazolo[1,5-a]pyridin-5-yl}-5-fluorophenyl)oxy]ethyl} -1 ,5,N,N-tetrameth ylpyrazole-3-carboxamide], the IC50 against NMT1 enzyme is 1.65 nM; in the test with MV-4-11 cells, 11.4 nM. Take `Cc1c(CCOc2c(F)cccc2-c2ccn3ncc(CN(C)C)c3c2)c(C(=O)N(C)C)nn1C` [Compound 5, 4-{2-[(6-{3-[(dimethylamino)methyl]pyrazolo[1,5-a]pyridin-5-yl}-2-fluorophenyl)oxy]ethyl} -1 ,5,N,N-tetrameth ylpyrazole-3-carboxamide]: the IC50 at NMT1 enzyme was determined as 1.74 nM; with MV-4-11 cells, 11.8 nM.

For the compound `Cc1c(CCOc2ccc(F)cc2-c2ccn3ncc(CN(C)C)c3c2)c(C(=O)N(C)C)nn1C` [Compound 6, 4-{2-[(2-{3-[(dimethylamino)methyl]pyrazolo[1,5-a]pyridin-5-yl}-4-fluorophenyl)oxy]ethyl}-1,5,N,N-tetrameth ylpyrazole-3-carboxamide], the values for the IC50 against NMT1 enzyme and in the test on MV-4-11 cells were 2.89 nM and 30.2 nM, respectively.

Take `Cc1c(CCOc2c(-c3ccn4ncc(CN(C)C)c4c3)ccc(F)c2F)c(C(=O)N(C)C)nn1C` [Compound 7, 4-{2-[(6-{3-[(dimethylamino)methyl]pyrazolo[1,5-a]pyridin-5-yl}-2,3-difluorophenyl)oxy]ethyl}-1,5,N,N-tetram ethylpyrazole-3-carboxamide]: the IC50 against NMT1 enzyme is 2.1 nM; in the test with MV-4-11 cells, 19.4 nM.

For `Cc1c(CCOc2c(-c3ccn4ncc(CN(C)C)c4c3)ccc(Cl)c2F)c(C(=O)N(C)C)nn1C` [Compound 8, 4-{2-[(3-chloro-6-{3-[(dimethylamino)methyl]pyrazolo[1,5-a]pyridin-5-yl}-2-fluorophenyl)oxy]ethyl}-1,5,N,N-tetramethylpyrazole-3-carboxamide], the IC50 on NMT1 enzyme came to 2.89 nM; with MV-4-11 cells it was 28.4 nM. On the same counts, the results for `Cc1c(CCOc2c(-c3ccn4ncc(CN(C)C)c4c3)ccc(Cl)c2Cl)c(C(=O)N(C)C)nn1C` [Compound 9, 4-{2-[(2,3-dichloro-6-{3-[(dimethylamino)methyl]pyrazolo[1,5-a]pyridin-5-yl}phenyl)oxy]ethyl}-1,5,N,N-tetra methylpyrazole-3-carboxamide] are 3.68 nM and 32.5 nM. The corresponding values for `Cc1c(CCOc2c(F)cc(F)cc2-c2ccn3ncc(CN(C)C)c3c2)c(C(=O)N(C)C)nn1C` [Compound 10, 4-{2-[(6-{3-[(dimethylamino)methyl]pyrazolo[1,5-a]pyridin-5-yl}-2,4-difluorophenyl)oxy]ethyl}-1,5,N,N-tetram ethylpyrazole-3-carboxamide] are 2.59 nM and 26.4 nM. The corresponding values for `Cc1c(COc2cc(Cl)ccc2-c2ccn3ncc(CN(C)C)c3c2)c(C(=O)N(C)C)nn1C` [Compound 11, 4-{[(5-chloro-2-{3-[(dimethylamino)methyl]pyrazolo[1,5-a]pyridin-5-yl}phenyl)oxy]methyl}-1,5,N,N-tetrameth ylpyrazole-3-carboxamide] are 6.31 nM and 58.7 nM.

`CNCc1cnn2ccc(-c3ccc(F)c(F)c3OCCc3c(C(C)(C)O)nn(C)c3C)cc12` [Compound 29, 2-(4-{2-[(2,3-difluoro-6-{3-[(methylamino)methyl]-pyrazolo[1,5-a]pyridin-5-yl}phenyl)oxy]ethyl}-1,5-dimethylpyrazol-3-yl)propan-2-ol] came in with an IC50 against NMT1 enzyme of 1.7 nM.

As for `CNCc1cnn2ccc(-c3ccc(F)c(F)c3OCCc3c(C(O)C(C)(C)C)nn(C)c3C)cc12` (stereo not shown) [Compound 30, 1-(4-{2-[(2,3-difluoro-6-{3-[(methylamino)methyl]-pyrazolo[1,5-a]pyridin-5-yl}phenyl)oxy]ethyl}-1,5-dimethylpyrazol-3-yl)-2,2-dimethylpr opan-1-ol], the IC50 against NMT1 enzyme was 1.62 nM. On the same count and under the same terms, next, `CNCc1cnn2ccc(-c3ccc(F)c(F)c3OCCc3c(C(C)O)nn(C)c3C)cc12` (stereo not shown) [Compound 31, 1-(4-{2-[(2,3-difluoro-6-{3-[(methylamino)methyl]-pyrazolo[1,5-a]pyridin-5-yl}phenyl)oxy]ethyl}-1,5-dimethylpyrazol-3-yl)ethan-1-ol]: 1.82 nM; `CNCc1cnn2ccc(-c3ccc(F)c(F)c3OCCc3c(C(O)C(C)C)nn(C)c3C)cc12` (stereo not shown) [Compound 32, 1-(4-{2-[(2,3-difluoro-6-{3-[(methylamino)methyl]pyrazolo[1,5-a]pyridin-5-yl}phenyl)oxy]ethyl}-1,5-dimethylpyrazol-3-yl)-2-methylpropan-1-ol]: 1.71 nM; `CNCc1cnn2ccc(-c3ccc(F)cc3OCCc3c(C(O)C(C)(C)C)nn(C)c3C)cc12` (stereo not shown) [Compound 34, 1-(4-{2-[(5-fluoro-2-{3-[(methylamino)methyl]pyrazolo[1,5-a]pyridin-5-yl}phenyl)oxy]ethyl}-1,5-dimethylpyrazol-3-yl)-2,2-dimethylpropan-1-ol]: 1.93 nM.

Take `CNCc1cnn2ccc(-c3ccc(F)cc3OCCc3c(C(O)C(C)C)nn(C)c3C)cc12` (stereo not shown) [Compound 36, 1-(4-{2-[(5-fluoro-2-{3-[(methylamino)methyl]pyrazolo[1,5-a]pyridin-5-yl}phenyl)oxy]ethyl}-1,5-dimethylpyrazol-3-yl)-2-methylpropan-1-ol]: the IC50 at NMT1 enzyme was 1.96 nM.
